Measured values from PubChem BioAssay (NCI).
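A five-concentration, 48-hour dose response in 96-well plates underlies each endpoint, interpolated linearly between surrounding concentrations. TGI marks complete inhibition of growth.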

Key:
Test in all cases: growth of human tumour cells (NCI), 48 h
[1] = tested on: NCI-H522 lung
[2] = tested on: HOP-92 NSCLC
[3] = tested on: CCRF-CEM leukemia
[4] = tested on: SK-MEL-2 melanoma
[5] = tested on: SK-MEL-28 melanoma
[6] = tested on: COLO 205 colon
[7] = tested on: KM12 colon
[8] = tested on: SK-OV-3 ovarian
[9] = tested on: UO-31 renal
[10] = tested on: SF-268 CNS
[11] = tested on: CAKI-1 renal
[12] = tested on: OVCAR-5 ovarian
[13] = tested on: HL-60(TB) leukemia
[14] = tested on: HCC-2998 colon
[15] = tested on: OVCAR-4 ovarian
[16] = tested on: SN12C renal
[17] = tested on: DLD-1 colon
[18] = tested on: K-562 leukemia
[19] = tested on: UACC-62 melanoma
[20] = tested on: HCT-15 colon

Compound | TGI [1] [µM] | TGI [2] [µM] | TGI [3] [µM] | TGI [4] [µM] | TGI [5] [µM] | TGI [6] [µM] | TGI [7] [µM] | TGI [8] [µM] | TGI [9] [µM] | TGI [10] [µM] | TGI [11] [µM] | TGI [12] [µM] | TGI [13] [µM] | TGI [14] [µM] | TGI [15] [µM] | TGI [16] [µM] | TGI [17] [µM] | TGI [18] [µM] | TGI [19] [µM] | TGI [20] [µM]
Cn1c(=O)c2nc(NCCO)cnc2n(C)c1=O | 46.4 | > 100 | > 100 | > 100 | > 100 | > 100 | > 100 | > 100 | > 100 | > 100 | > 100 | > 100 | 76.9 | > 100 | > 100 | > 100 | > 100 | > 100 | > 100 | > 100
O=C1CSC(C(N=Nc2ccc(Cl)cc2)c2nc3ccccc3[nH]2)=N1 (stereo not given) | 71.1 | > 100 | > 100 | 41.8 | 92.2 | > 100 | > 100 | > 100 | > 100 | > 100 | > 100 | > 100 | > 100 | > 100 | > 100 | > 100 | > 100 | > 100 | > 100 | > 100
Cc1cc2c(C(C)C)c(O)c(O)c(C=Nc3ccccc3)c2c(O)c1-c1c(C)cc2c(C(C)C)c(O)c(O)c(C=Nc3ccccc3)c2c1O | > 100 | > 100 | > 100 | > 100 | > 100 | > 100 | > 100 | > 100 | > 100 | > 100 | > 100 | > 100 | > 100 | > 100 | > 100 | > 100 | > 100 | > 100 | > 100 | > 100
COC(=O)C1C(O)C(C)C(O)OC1C(C)C(O)C(C)/C=C\C=C(/C)C(=O)Nc1c(C)c(OC(C)=O)c2c(c1O)C(=O)C(C)=C1OCOC(/C(C)=C/C(C)=O)=C12 (stereo not given) | 7.74 | 22.3 | 34.4 | 20.9 | 4.96 | 20.6 | 26.5 | 40.2 | 25.1 | 33.1 | 34 | 25 | 15.3 | 26.3 | 23 | 21.5 | 19.4 | 51.1 | 31.1 | 29
CC(C)[C@](O)(C(=O)OCC1=CCN2CC[C@@H](O)[C@@H]12)[C@H](C)O | > 375 | > 375 | > 375 | > 375 | > 375 | > 375 | > 375 | > 375 | > 375 | > 375 | > 375 | > 375 | > 375 | > 375 | > 375 | > 375 | > 375 | > 375 | > 375 | > 375
Cc1c(N=NN(C)C)cc[n+]([O-])c1C | > 100 | > 100 | > 100 | > 100 | > 100 | > 100 | > 100 | > 100 | > 100 | > 100 | > 100 | > 100 | > 100 | > 100 | > 100 | > 100 | > 100 | > 100 | > 100 | > 100
